Laboratory results taken from US9939427B2, “Method for evaluating the scent performance of perfumes or perfume mixtures” (Symrise AG, priority 2013, dated 2018).
“Also recorded” adds a separate entry of the source.

Legend:
Type in all cases: cell-based
OR4X2 = target: T1, OR4X2 (Homo sapiens, UniProt Q8NGF9); assay: Ca-imaging of OR4X2-transfected HEK293 cells; set-up: key to OR4X2 responded to odorant: ▪: 18 olfactory receptors responded to 32 odorants in related with specific anosmia; settings: for Response of OR4X2 to odorant, in words: single odorants 200 μM; for Number of cell responses, Experiment (OR4X2): odorant 200 μM, approximately 2000 transfected cells in three times of measuring (Table 4, FIG. 5)
T1 construct: specific primers, which amplify the complete open reading frame; expressed in transfected cells; host or cells: HEK293
T1 sequence (Q8NGF9 1-303): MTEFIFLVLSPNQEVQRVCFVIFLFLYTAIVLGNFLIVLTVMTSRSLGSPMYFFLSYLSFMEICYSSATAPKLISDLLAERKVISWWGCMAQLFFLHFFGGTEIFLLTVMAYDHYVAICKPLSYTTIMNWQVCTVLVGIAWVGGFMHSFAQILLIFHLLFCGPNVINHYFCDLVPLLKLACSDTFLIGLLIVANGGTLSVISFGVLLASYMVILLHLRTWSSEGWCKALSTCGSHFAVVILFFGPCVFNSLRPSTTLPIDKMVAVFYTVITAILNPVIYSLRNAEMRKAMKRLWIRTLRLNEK
Procedure: (§1) HEK293 cells were cultivated in Petri dishes (Ø35 mm) as previously described (Benbernou et al. 2007). We grow up HEK293 cells in culture medium containing standard DMEM with 10% heat-inactivated fetal bovine serum, 2 mM L-glutamine, 100 units/ml penicillin, and 100 units/ml streptomycin in a humidified atmosphere (37° C., 5% CO2). After 2-3 days, the transfection process was carried out, whereby the cell culture was 70-80% confluent. The calciumphosphate method was applied to transfect DNA plasmid transiently in HEK293 cells in case of Ca-imaging method.
(§2) Calcium cations and phosphate anions created crystal precipitations coupled with DNA which could invade into the cells through endocytosis. Cells were transiently transfected with plasmid DNA which consists of pCI expression vector and PCR-amplified full-length cDNA of olfactory receptors candidates, and also Gα15, RTP1, Myr-Ric8A, HSC70, and m-Cherry as cofactors. The precipitation could be created after 15-20 min, with dropping the transfection solution on HEK293 cells. Before measuring by Ca-imaging cells were incubated 48-60 hours at 370 C, 5% CO2. Cationic liposome-mediated transfection method was applied to transfect DNA plasmid transiently in HANA3A cells in case of CRE-Luciferase and CRE-SEAP assays.
(§3) Calcium imaging of the transfected HEK293 cells was done by using chambers determinate an inverted microscope (Olympus; IX70) using a 10× objective (CPIanFL N Olympus). Fluorescence emission was determined every 4 s by using a CCD camera (Charge Coupled Device, C9100 Hamamatsu). The capillary tube which was responsible to supply odorants was generated closely above the cells. The columns filled with odorants, DMSO and ATP. Odorants were manually monitored to drop each 4-5 s to transfected cells. Solutions with drop wise form spread on HEK293 cells in 35 mm dishes.
(§4) In experiments, Fura-2 Acetoxymethylester (Fura-2/AM) was applied. The non-polar Fura2/AM is fluorescent but not yet calcium-sensitive. Once diffuses into cell plasma, Fura-2/AM is hydrolyzed to Fura-2 which is calcium-sensitive and functions as Ca2+ chelator. Regardless of the presence of calcium, Fura-2 emits at the wavelength of 510 nm. Once Fura-2 binds to free intracellular Ca2+ in cell plasma, its ratio of excitation at wavelengths of 340 nm and 380 nm is changed and correlated to the amount of intracellular Ca2+. According to this feature, the analysis of 340/380 nm excitation ratio for Fura-2 allows to quantify intracellular calcium levels.
(§5) In preparation for Ca-imaging measurements, transfected HEK293 cells were added 3 it Fura2/AM (3 μM) and incubated 30-45 min at 370 C, 5% CO2. After this step, experiments were carried out in a dark condition (Fura-2 is light-sensitive). After the incubation, medium of cell culture was replaced with 2 ml Ringer's solution.
(§6) Odorants were freshly prepared with DMSO as 1 M stocks solutions. Six mixtures (200 μM each chemical) were applied to cells sequentially (20 s each mixture/30 s Ringer). Those ORs tested with single odorants that had generated a response to odorant mixture group previously. Odorants were prepared in 100-200 μM concentration.
(§7) Ringer's solution was used for washing cells between measuring by two different odorants. Positive response was determined by the timing of the response, the strength of the response (more than twofold higher than the noise amplitude of the baseline), and the shape of the response curve (sharp rise in curve with gradual recovery). The typical shape of response curves was established by observing responses to repeated stimulation with 200 μM of odorants. After testing with single odorants at 100 μM, stimulating odorants were often retested at 200 μM concentrations. To confirm the result of every receptor that produced a significant response curves, the experiment was repeated for twelve times. Finally, cells were exposed to ATP (0.25 mM) which could activate P2Y receptor channel and induce Ca2+ influx into cells. […]

OR1B1 = target: T2, OR1B1 (Homo sapiens, UniProt Q8NGR6); assay: Ca-imaging of OR1B1-transfected HEK293 cells; set-up: key to OR1B1 responded to odorant: ▪: 18 olfactory receptors responded to 32 odorants in related with specific anosmia; settings: for Number of cell responses, Experiment (OR1B1): odorant 200 μM, approximately 2000 transfected cells in three times of measuring (Table 4, FIG. 5)
T2 construct: specific primers, which amplify the complete open reading frame; expressed in transfected cells; host or cells: HEK293
T2 sequence (Q8NGR6 1-317): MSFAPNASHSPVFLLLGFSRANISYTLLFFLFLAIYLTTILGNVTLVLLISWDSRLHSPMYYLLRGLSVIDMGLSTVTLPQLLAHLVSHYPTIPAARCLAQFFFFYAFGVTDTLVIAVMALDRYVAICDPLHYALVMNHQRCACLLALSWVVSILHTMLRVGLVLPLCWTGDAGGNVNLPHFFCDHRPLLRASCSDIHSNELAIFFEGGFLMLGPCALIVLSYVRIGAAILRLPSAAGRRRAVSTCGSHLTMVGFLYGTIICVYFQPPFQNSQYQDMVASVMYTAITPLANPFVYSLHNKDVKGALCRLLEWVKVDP
Procedure: as §1, §2, §3, §4, §5, §6, §7

[1] = system: HEK293 cells transfected with all cofactors and pCI plasmids without ORs; assay: Ca-imaging of control HEK293 cells without OR; settings: odorant 200 μM, three times of measuring (Table 4, FIG. 5)
Procedure: as §1, §2, §3, §4, §5, §6, §7

OR10A6 = target: T3, OR10A6 (Homo sapiens, UniProt Q8NH74); assay: Ca-imaging of OR10A6-transfected HEK293 cells; set-up: key to OR10A6 responded to odorant: ▪: 18 olfactory receptors responded to 32 odorants in related with specific anosmia
T3 construct: specific primers, which amplify the complete open reading frame; expressed in transfected cells; host or cells: HEK293
T3 sequence (Q8NH74 1-314): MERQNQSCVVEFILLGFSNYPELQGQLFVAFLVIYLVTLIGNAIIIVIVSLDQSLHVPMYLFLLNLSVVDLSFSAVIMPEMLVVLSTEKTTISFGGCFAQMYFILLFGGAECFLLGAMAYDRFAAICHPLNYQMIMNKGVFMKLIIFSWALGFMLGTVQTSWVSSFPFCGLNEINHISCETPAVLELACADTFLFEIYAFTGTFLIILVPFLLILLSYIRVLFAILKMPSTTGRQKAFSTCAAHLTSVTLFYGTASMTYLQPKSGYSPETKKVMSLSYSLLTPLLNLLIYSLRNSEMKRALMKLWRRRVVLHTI
Procedure: as §1, §2, §3, §4, §5, §6
Ringer's solution was used for washing cells between measuring by two different odorants. Positive response was determined by the timing of the response, the strength of the response (more than twofold higher than the noise amplitude of the baseline), and the shape of the response curve (sharp rise in curve with gradual recovery). […]

OR8D2 = target: T4, OR8D2 (Homo sapiens, UniProt Q9GZM6); assay: Ca-imaging of OR8D2-transfected HEK293 cells; set-up: key to OR8D2 responded to odorant: ▪: 18 olfactory receptors responded to 32 odorants in related with specific anosmia
T4 construct: specific primers, which amplify the complete open reading frame; expressed in transfected cells; host or cells: HEK293
T4 sequence (Q9GZM6 1-311): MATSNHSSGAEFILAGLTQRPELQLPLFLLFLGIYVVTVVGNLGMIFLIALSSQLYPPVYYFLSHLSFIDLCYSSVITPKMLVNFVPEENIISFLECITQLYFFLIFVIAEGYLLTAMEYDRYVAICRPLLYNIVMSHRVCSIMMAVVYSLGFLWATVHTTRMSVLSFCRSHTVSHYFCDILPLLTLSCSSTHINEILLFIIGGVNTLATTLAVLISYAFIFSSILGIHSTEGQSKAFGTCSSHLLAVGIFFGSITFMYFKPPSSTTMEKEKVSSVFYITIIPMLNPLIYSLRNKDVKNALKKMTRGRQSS
Procedure: as §1, §2, §3, §4, §5, §6, §7

OR8B4 = target: T5, OR8B4 (Homo sapiens, UniProt Q96RC9); assay: Ca-imaging of OR8B4-transfected HEK293 cells; set-up: key to OR8B4 responded to odorant: ▪: 18 olfactory receptors responded to 32 odorants in related with specific anosmia; settings: for OR8B4 responded to odorant / Response of OR8B4 to odorant, in words: Ca-imaging; for OR8B4 responded to odorant: HEK293 cells, individual odorant 200 μM, significant response p<0.05; for Response of OR8B4 to odorant, in words: single odorants 200 μM; for Number of cell responses (OR8B4): odorant 200 μM, approximately 2000 transfected cells in three times of measuring (FIG. 5)
T5 construct: specific primers, which amplify the complete open reading frame; expressed in transfected cells; host or cells: HEK293
T5 sequence (Q96RC9 1-309): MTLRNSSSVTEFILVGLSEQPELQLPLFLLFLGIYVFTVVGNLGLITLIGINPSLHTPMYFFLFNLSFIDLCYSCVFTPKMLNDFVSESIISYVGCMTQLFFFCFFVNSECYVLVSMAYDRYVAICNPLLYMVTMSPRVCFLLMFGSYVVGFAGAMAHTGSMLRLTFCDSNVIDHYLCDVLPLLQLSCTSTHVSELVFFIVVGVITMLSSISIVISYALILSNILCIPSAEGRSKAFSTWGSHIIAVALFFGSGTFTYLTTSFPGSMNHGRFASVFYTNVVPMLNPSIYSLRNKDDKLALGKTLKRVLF
Procedure: as §1, §2, §3, §4, §5, §6, §7

[2] = Ca-imaging, HEK293 cells, individual odorant 200 μM, significant response p<0.05
[3] = Ca-imaging, single odorants 200 μM

Row | Structure (SMILES) | Number of cell responses, Experiment (OR4X2) (OR4X2) | Number of cell responses, Control [1] | OR8B4 responded to odorant (OR8B4) | Response of OR8B4 to odorant, in words (OR8B4) | Number of cell responses (OR8B4) (OR8B4) | other results
1 | NCC(=O)c1ccccc1 [2-aminoacetophenon, 2-Aminoacetophenone] | 20 | – | – | – | – | OR4X2 responded to odorant (OR4X2; [2]): ▪; Response of OR4X2 to odorant, in words (OR4X2; Ca-imaging): could be the receptor; Response of OR4X2 to odorant, in words (OR4X2; Ca-imaging, listed as 2-aminoacetophenone): responded
2 | Cc1occc(=O)c1O [3-Hydroxy-2-Methyl-4-Pyran, 3-Hydroxy-2-Methyl-4-Pyran-4-one] | – | 5 | – | – | – | OR1B1 responded to odorant (OR1B1; [2]): ▪; Response of OR1B1 to odorant, in words (OR1B1; [3]): significantly (P<0.05) activated; Number of cell responses, Experiment (OR1B1) (OR1B1; listed as 3-Hydroxy-2-methyl-4-pyranone): 35; Number of cell responses, Experiment (OR1B1) (OR1B1; listed as 3-hydroxy-2-methyl-4-pyrane): 9
3 | CCCCCCO [Alcohol C6] | – | – | – | – | – | OR10A6 responded to odorant (OR10A6; HEK293 cells, individual odorant 200 μM, significant response p<0.05): ▪; Response of OR10A6 to odorant, in words (OR10A6; single odorants 200 μM): elicited a response; also recorded: detected; OR8D2 responded to odorant (OR8D2; [2]): ▪; Response of OR8D2 to odorant, in words (OR8D2; [3]): elicited a response; also recorded: significantly activated; also recorded: detected; Number of cell responses, Experiment (OR8D2) (OR8D2; odorant 200 μM, approximately 2000 transfected cells in three times of measuring (Table 4, FIG. 5)): 9
4 | CCCCCC=O [Aldehyde C6, Aldehyd C6] | 8 | 0 | ▪ | responded significantly | 8 | –
5 | COc1ccc(C=O)cc1 [Anisic aldehyde, Anisic Aldehyde] | 14 | 0 | ▪ | responded significantly | 14 | –
